Laboratory results taken from US20250368635A1, “HETEROARYL DERIVATIVE COMPOUND, AND USES THEREOF” (VORONOI, INC., priority 2022, published 2025).

Test system: Ba/F3 cells expressing EGFR Del19/C797S (EGFR DC)
Assay: Inhibition of proliferation of Ba/F3 cells expressing EGFR Del19/C797S (CellTiter-Glo, 72 h)
Type: cell-based
Conditions: Mus musculus, BaF3, 72 hours treatment
Protocol: The following experiment was performed to evaluate the inhibitory activity of the compounds according to the present invention on the proliferation of Ba/F3 cells expressing EGFR Del19/C797S (EGFR DC) and EGFR L858R/C797S (EGFR LC) mutations.
Ba/F3 cells were cultured using medium (RPMI-1640) containing 10% fetal bovine serum (FBS) and 5 ng/ml IL-3 (R&D Systems). The transduced Ba/F3 cells were cultured by adding 1 μg/ml puromycin (Invitrogen) to the same medium.
24 hours prior to treatment with compounds, 3,000 to 5,000 cells were seeded on a well plate (white clear bottom 96 well plate, Corning). The compounds were diluted in dimethyl sulfoxide (3-fold dilution, total of 12 concentrations) and injected at 1 μl each so that the final concentration was 0.2 nM to 5 μM. After 72 hours post treatment with compounds, living cells were stored at room temperature for 10 minutes using CellTiter-Glo luminescent cell-viability reagent (Promega), and the luminescence intensity thereof was measured using a reader (Synergy Neo, Biotek). Each test was repeated three times. The result values were calculated as a cell growth rate (%) compared to the control group. A graph was created using the GraphPad Prism version 8.3.0 program, and GI50 values were calculated.

In the case of `COc1cc(N2CCC3(CC2)CCN(C2COC2)CC3)c(-c2cnn(C)c2)cc1Nc1cc(N2OCC[C@@H]2c2cccc(F)c2F)ncn1` [Example 56, (R)-6-(3-(2,3-difluorophenyl)isoxazolidin-2-yl)-N-(2-methoxy-5-(1-methyl-1H-pyrazol-4-yl)-4-(9-(oxetan-3-yl)-3,9-diazaspiro[5.5]undecan-3-yl)phenyl)pyrimidin-4-amine], the GI50 was under 100 nM.

`COc1cc(N2CCC3(CC2)CCN(C(C)(C)CF)CC3)c(-c2cn(C)nc2F)cc1Nc1cc(N2OCC[C@@H]2c2ccccc2)ncn1` [Example 103, (R)-N-(5-(3-fluoro-1-methyl-1H-pyrazol-4-yl)-4-(9-(1-fluoro-2-methylpropan-2-yl)-3,9-diazaspiro[5.5]undecan-3-yl)-2-methoxyphenyl)-6-(3-phenylisoxazolidin-2-yl)pyrimidin-4-amine] showed a GI50 of under 100 nM.

For `COc1cc(N2CCC(N3CCOCC3)CC2)c(-c2cnn(C)c2)cc1Nc1cc(N2OCC[C@@H]2c2cccc(F)c2F)ncn1` [Example 46, (R)-6-(3-(2,3-difluorophenyl)isoxazolidin-2-yl)-N-(2-methoxy-5-(1-methyl-1H-pyrazol-4-yl)-4-(4-morpholinopiperidin-1-yl)phenyl)pyrimidin-4-amine], the GI50 was under 100 nM.

Molecule `COc1cc2c(cc1Nc1cc(N3OCC[C@@H]3c3cccc(F)c3F)ncn1)-c1cnn(C)c1CCN2C(C)C` [Example 47, (R)-N-(6-(3-(2,3-difluorophenyl)isoxazolidin-2-yl)pyrimidin-4-yl)-6-isopropyl-8-methoxy-3-methyl-3,4,5,6-tetrahydrobenzo[b]pyrazolo [4,3-d]azepin-9-amine] has a GI50 of 100 to 1000 nM.

Work on `CN1CCN(C2CCN(c3c(-c4cnn(C)c4)cc(Nc4cc(N5OCC[C@@H]5c5cccc(F)c5F)ncn4)c4c3CCO4)CC2)CC1` [Example 112, (R)-6-(3-(2,3-difluorophenyl)isoxazolidin-2-yl)-N-(5-(1-methyl-1H-pyrazol-4-yl)-4-(4-(4-methylpiperazin-1-yl)piperidin-1-yl)-2,3-dihydrobenzofuran-7-yl)pyrimidin-4-amine] yielded a GI50 of 100 to 1000 nM.

`COc1cc(N2CCC3(CCC(OC)CC3)CC2)c(-c2cnn(C)c2)cc1Nc1cc(N2OCC[C@@H]2c2cccc(F)c2F)ncn1` [Example 42, (R)-6-(3-(2,3-difluorophenyl)isoxazolidin-2-yl)-N-(2-methoxy-4-(9-methoxy-3-azaspiro[5.5]undecan-3-yl)-5-(1-methyl-1H-pyrazol-4-yl)phenyl)pyrimidin-4-amine] gave a GI50 of 100 to 1000 nM.

`COc1cc(N2CCC(CN3CCC(CC(F)(F)F)C3)CC2)c(-c2cnn(C)c2)cc1Nc1cc(N2OCC[C@@H]2c2cccc(F)c2F)ncn1` (stereo partly drawn) [Example 63, 6-((R)-3-(2,3-difluorophenyl)isoxazolidin-2-yl)-N-(2-methoxy-5-(1-methyl-1H-pyrazol-4-yl)-4-(4-((3-(2,2,2-trifluoroethyl)pyrrolidin-1-yl)methyl)piperidin-1-yl)phenyl)pyrimidin-4-amine] showed a GI50 of under 100 nM.

`COc1cc(N2CC3(CCOCC3)C2)c(-c2cnn(C)c2)cc1Nc1cc(N2OCC[C@@H]2c2cccc(F)c2F)ncn1` [Example 111, (R)-6-(3-(2,3-difluorophenyl)isoxazolidin-2-yl)-N-(2-methoxy-5-(1-methyl-1H-pyrazol-4-yl)-4-(7-oxa-2-azaspiro[3.5]nonan-2-yl)phenyl)pyrimidin-4-amine] gave a GI50 of 100 to 1000 nM.

`COc1cc(N2CCC(C)(OC)CC2)c(-c2cnn(C)c2)cc1Nc1cc(N2OCC[C@@H]2c2cccc(F)c2F)ncn1` [Example 109, (R)-6-(3-(2,3-difluorophenyl)isoxazolidin-2-yl)-N-(2-methoxy-4-(4-methoxy-4-methylpiperidin-1-yl)-5-(1-methyl-1H-pyrazol-4-yl)phenyl)pyrimidin-4-amine] was tested, and the GI50 was under 100 nM.

For `Cn1cc(-c2cc(Nc3cc(N4OCC[C@@H]4c4cccc(F)c4F)ncn3)c3c(c2N2CCOCC2)OCCO3)cn1` [Example 96, (R)-6-(3-(2,3-difluorophenyl)isoxazolidin-2-yl)-N-(7-(1-methyl-1H-pyrazol-4-yl)-8-morpholino-2,3-dihydrobenzo[b][1,4]dioxin-5-yl)pyrimidin-4-amine], the GI50 was 100 to 1000 nM.

`COc1cc(N2CCSCC2)c(-c2cnn(C)c2)cc1Nc1cc(N2OCC[C@@H]2c2cccc(F)c2F)ncn1` [Example 85, (R)-6-(3-(2,3-difluorophenyl)isoxazolidin-2-yl)-N-(2-methoxy-5-(1-methyl-1H-pyrazol-4-yl)-4-thiomorpholinophenyl)pyri-midin-4-amine] showed a GI50 of 100 to 1000 nM.

`COc1cc(N2CC[C@@H](OC)[C@@H](F)C2)c(-c2cnn(C)c2)cc1Nc1cc(N2OCC[C@@H]2c2cccc(F)c2F)ncn1` [Example 66, 6-((R)-3-(2,3-difluorophenyl)isoxazolidin-2-yl)-N-(4-((3,4R)-3-fluoro-4-methoxypiperidin-1-yl)-2-methoxy-5-(1-methyl-1H-pyrazol-4-yl)phenyl)pyrimidin-4-amine] was tested, and the GI50 was 100 to 1000 nM.

For `COc1cc(N2CCOCC2)c(-c2cn(C)nc2F)cc1Nc1cc(N2OCC[C@@H]2c2cccc(F)c2F)ncn1` [Example 16, (R)-6-(3-(2,3-difluorophenyl)isoxazolidin-2-yl)-N-(5-(3-fluoro-1-methyl-1H-pyrazol-4-yl)-2-methoxy-4-morpholinophenyl)pyrimidin-4-amine], the GI50 was under 100 nM.

With `COc1cc(N2CCC(C3COC3)CC2)c(-c2cn(C)nc2F)cc1Nc1cc(N2OCC[C@@H]2c2cccc(F)c2F)ncn1` [Example 17, (R)-6-(3-(2,3-difluorophenyl)isoxazolidin-2-yl)-N-(5-(3-fluoro-1-methyl-1H-pyrazol-4-yl)-2-methoxy-4-(4-(oxetan-3-yl)piperidin-1-yl)phenyl)pyrimidin-4-amine] the GI50 was 100 to 1000 nM.

`COc1cc(N2CCN(C)CC2)c(-c2cnc3ccccc3c2)cc1Nc1cc(N2OCC[C@@H]2c2cccc(F)c2F)ncn1` [Example 78, (R)-6-(3-(2,3-difluorophenyl)isoxazolidin-2-yl)-N-(2-methoxy-4-(4-methylpiperazin-1-yl)-5-(quinolin-3-yl)phenyl)pyrimidin-4-amine] gave a GI50 of 100 to 1000 nM.

With `COc1cc(N2C[C@@H](C)O[C@@H](C)C2)c(-c2cnn(C)c2)cc1Nc1cc(N2OCC[C@@H]2c2cccc(F)c2F)ncn1` [Example 107, 6-((R)-3-(2,3-difluorophenyl)isoxazolidin-2-yl)-N-(4-((2S,6R)-2,6-dimethylmorpholino)-2-methoxy-5-(1-methyl-1H-pyrazol-4-yl)phenyl)pyrimidin-4-amine] the GI50 was 100 to 1000 nM.

`COc1cc(N2CCC(N3CCC(F)(F)CC3)CC2)c(-c2cnn(C)c2)cc1Nc1cc(N2OCC[C@@H]2c2cccc(F)c2F)ncn1` [Example 61, (R)-N-(4-(4,4-difluoro-[1,4′-bipiperidin]-1′-yl)-2-methoxy-5-(1-methyl-1H-pyrazol-4-yl)phenyl)-6-(3-(2,3-difluorophenyl)isoxazolidin-2-yl)pyrimidin-4-amine] showed a GI50 of 100 to 1000 nM.

Work on `CCOc1cc(N2C[C@@H](C)O[C@@H](C)C2)c(-c2cnn(C)c2)cc1Nc1cc(N2OCC[C@@H]2c2cccc(F)c2F)ncn1` [Example 104, 6-((R)-3-(2,3-difluorophenyl)isoxazolidin-2-yl)-N-(4-((25,6R)-2,6-dimethylmorpholino)-2-ethoxy-5-(1-methyl-1H-pyrazol-4-yl)phenyl)pyrimidin-4-amine] yielded a GI50 of 100 to 1000 nM.

`COc1cc(N2CCOC3(CC3)C2)c(-c2cnn(C)c2)cc1Nc1cc(N2OCC[C@@H]2c2cccc(F)c2F)ncn1` [Example 43, (R)-6-(3-(2,3-difluorophenyl)isoxazolidin-2-yl)-N-(2-methoxy-5-(1-methyl-1H-pyrazol-4-yl)-4-(4-oxa-7-azaspiro[2.5]octan-7-yl)phenyl)pyrimidin-4-amine] gave a GI50 of 100 to 1000 nM.

`COc1cc(N2C3COCC2C3)c(-c2cnn(C)c2)cc1Nc1cc(N2OCC[C@@H]2c2cccc(F)c2F)ncn1` [Example 44, N-(4-(3-oxa-6-azabicyclo[3.1.1]heptan-6-yl)-2-methoxy-5-(1-methyl-1H-pyrazol-4-yl)phenyl)-6-((R)-3-(2,3-difluorophenyl)isoxazolidin-2-yl)pyrimidin-4-amine] showed a GI50 of 100 to 1000 nM.

For `COc1cc(N2CCC3(CCOCC3)C2)c(-c2cnn(C)c2)cc1Nc1cc(N2OCC[C@@H]2c2cccc(F)c2F)ncn1` [Example 45, (R)-6-(3-(2,3-difluorophenyl)isoxazolidin-2-yl)-N-(2-methoxy-5-(1-methyl-1H-pyrazol-4-yl)-4-(8-oxa-2-azaspiro[4.5]decan-2-yl)phenyl)pyrimidin-4-amine], the GI50 was 100 to 1000 nM.

Molecule `COc1cc(N2CCO[C@H](C)C2)c(-c2cnn(C)c2)cc1Nc1cc(N2OCC[C@@H]2c2cccc(F)c2F)ncn1` [Example 108, 6-((R)-3-(2,3-difluorophenyl)isoxazolidin-2-yl)-N-(2-methoxy-5-(1-methyl-1H-pyrazol-4-yl)-4-((R)-2-methylmorpholino)phenyl)py-rimidin-4-amine] has a GI50 of 100 to 1000 nM.

With `COc1cc(N2CC[C@H](OC)[C@H](F)C2)c(-c2cnn(C)c2)cc1Nc1cc(N2OCC[C@@H]2c2cccc(F)c2F)ncn1` [Example 67, 6-((R)-3-(2,3-difluorophenyl)isoxazolidin-2-yl)-N-(4-((3R,4S)-3-fluoro-4-methoxypiperidin-1-yl)-2-methoxy-5-(1-methyl-1H-pyrazol-4-yl)phenyl)pyrimidin-4-amine] the GI50 was under 100 nM.
